The record followed here is patent publication US9108983B2, “Pyrrole compounds, a process for their preparation and pharmaceutical compositions containing them” (LES LABORATOIRES SERVIER, priority 2013, dated 2015).

Assay [1] relates to RS4;11 leukaemia tumour line. Put plainly: In vitro cytotoxicity (Microculture Tetrazolium Assay). Format: cell-based. As to conditions: Homo sapiens, RS4-11, 48 h, RS4;11 cells, exposed for 48 hours, cell viability; read-out: IC50 (nM) MTT RS4;11. The protocol:
The cytotoxicity studies were carried out on the RS4;11 leukaemia tumour line.
The cells are distributed onto microplates and exposed to the test compounds for 48 hours.
The cell viability is then quantified by a colorimetric assay, the Microculture Tetrazolium Assay (Cancer Res., 1987, 47, 939-942).

The target of another assay is Bcl-2 protein (histag-Bcl-2, UniProtKB P10415) (Homo sapiens (Human), UniProt P10415). The assay can be described thus: Inhibition of Bcl-2 by the fluorescence polarisation technique. Format: binding. As to conditions: incubation for 2 hours, read-out: IC50 (nM) Bcl-2 FP. The procedure, abridged:
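Fluorescence polarisation competition: His-tagged Bcl-2 (2.50×10^−8 M final) with fluorescein-labelled peptide (1.00×10^−8 M final) in 10 mM Hepes, 150 mM NaCl, 0.05% Tween20, pH 7.4. Increasing compound concentrations were added. Polarisation was read after 2 h incubation.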

Structures can show the parent of a compound that is named as a salt.

Chain of Bcl-2 protein (P10415 whole entry): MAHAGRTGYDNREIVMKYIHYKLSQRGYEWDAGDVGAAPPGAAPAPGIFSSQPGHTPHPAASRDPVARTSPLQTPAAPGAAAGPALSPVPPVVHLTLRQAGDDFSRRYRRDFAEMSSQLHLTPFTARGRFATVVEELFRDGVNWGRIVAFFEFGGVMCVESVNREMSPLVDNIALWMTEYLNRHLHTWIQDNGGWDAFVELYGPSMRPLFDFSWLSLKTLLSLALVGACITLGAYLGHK

In the case of `Cc1c(C(=O)N(c2ccc(O)cc2)c2cnn(C)c2)cc(-c2cc3c(cc2C(=O)N2Cc4ccccc4C[C@H]2CN2CCOCC2)OCO3)n1CC(F)F` [Example 95, 1-(2,2-Difluoroethyl)-N-(4-hydroxyphenyl)-2-methyl-N-(1-methyl-1H-pyrazol-4-yl)-5-(6-{[(3S)-3-(morpholin-4-ylmethyl)-3,4-dihydroisoquinolin-2(1H)-yl]carbonyl}-1,3-benzodioxol-5-yl)-1H-pyrrole-3-carboxamide hydrochloride], the values for the half-maximal inhibitory concentration (IC50) (in assay [1]; at Bcl-2 protein) were 174 nM and 7 nM, respectively.
With `Cc1c(C(=O)N(c2ccc(O)cc2)c2cnn(C)c2)cc(-c2cc3c(cc2C(=O)N2Cc4ccccc4C[C@H]2C)OCO3)n1CCN1CCOCC1` [Example 96, N-(4-Hydroxyphenyl)-2-methyl-5-(6-{[(3R)-3-methyl-3,4-dihydroisoquinolin-2(1H)-yl]carbonyl}-1,3-benzodioxol-5-yl)-N-(1-methyl-1H-pyrazol-4-yl)-1-[2-(morpholin-4-yl)ethyl]-1H-pyrrole-3-carboxamide hydrochloride], the IC50 came to 161 nM in assay [1] and 13.5 nM on Bcl-2 protein.
Taken in the same sequence, the figures for `Cc1c(C(=O)N(c2ccccc2)c2ccc(O)cc2)cc(-c2cc3c(cc2C(=O)N2Cc4ccccc4C[C@H]2C)OCO3)n1CCN1CCOCC1` [Example 97, N-(4-Hydroxyphenyl)-2-methyl-5-(6-{[(3R)-3-methyl-3,4-dihydroisoquinolin-2(1H)-yl]carbonyl}-1,3-benzodioxol-5-yl)-1-[2-(morpholin-4-yl)ethyl]-N-phenyl-1H-pyrrole-3-carboxamide hydrochloride] were 98 nM and 19 nM.
Taken in the same sequence, the figures for `Cc1c(C(=O)N(c2ccccc2)c2ccc(O)cc2)cc(-c2cc3c(cc2C(=O)N2Cc4ccccc4C[C@H]2C)OCO3)n1CCN(C)C` [Example 98, 1-[2-(Dimethylamino)ethyl]-N-(4-hydroxyphenyl)-2-methyl-5-(6-{[(3R)-3-methyl-3,4-dihydroisoquinolin-2(1H)-yl]carbonyl}-1,3-benzodioxol-5-yl)-N-phenyl-1H-pyrrole-3-carboxamide hydrochloride] were 68.3 nM and 7.6 nM.
Taken in the same sequence, the figures for `COCCN(C)CCn1c(-c2cc3c(cc2C(=O)N2Cc4ccccc4C[C@H]2C)OCO3)cc(C(=O)N(c2ccc(O)cc2)c2cnn(C)c2)c1C` [Example 99, N-(4-Hydroxyphenyl)-1-{2-[(2-methoxyethyl)(methyl)amino]ethyl}-2-methyl-5-(6-{[(3R)-3-methyl-3,4-dihydroisoquinolin-2(1H)-yl]carbonyl}-1,3-benzodioxol-5-yl)-N-(1-methyl-1H-pyrazol-4-yl)-1H-pyrrole-3-carboxamide hydrochloride] were 108 nM and 6.4 nM.
Consider `COc1cc(C(=O)N2Cc3ccccc3C[C@H]2CN2CCOCC2)c(-c2[nH]c(C)c(C(=O)N(c3ccc(O)cc3)c3cnn(C)c3)c2C)cc1F` [Example 100, 5-(5-Fluoro-4-methoxy-2-{[(3S)-3-(morpholin-4-ylmethyl)-3,4-dihydroisoquinolin-2(1H)-yl]carbonyl}phenyl)-N-(4-hydroxyphenyl)-4,2-dimethyl-N-(1-methyl-1H-pyrazol-4-yl)-1H-pyrrole-3-carboxamide hydrochloride], for which the IC50 in assay [1] worked out at 193 nM; at Bcl-2 protein, 22.9 nM.
In the same order, the values of `COc1cc(-c2cc(C(=O)N(c3ccc(O)cc3)c3cnn(C)c3)c(C)n2C)c(C(=O)N2Cc3ccccc3C[C@H]2CN2CCOCC2)cc1F` [Example 101, 5-(4-Fluoro-5-methoxy-2-{[(3S)-3-(morpholin-4-ylmethyl)-3,4-dihydroisoquinolin-2(1H)-yl]carbonyl}phenyl)-N-(4-hydroxyphenyl)-1,2-dimethyl-N-(1-methyl-1H-pyrazol-4-yl)-1H-pyrrole-3-carboxamide hydrochloride] are 743 nM and 21.1 nM.
